Data on 1 compound can be found in patent US9399625B2, “Acridone compounds” (Oregon Health & Science University, priority 2006, dated 2016).

Entries after “also recorded” stand apart in the source; their conditions may differ. Like-named read-outs stand apart in the source and are kept apart here.

In general, IC50 refers to the concentration that gives 50% inhibition. As usually defined, the Ki is a dissociation constant, usually derived from enzyme kinetics or from competition with a known ligand.

Data set [1] concerns MDR Dd2 strain of P. falciparum. The data set can be described thus: In vitro antimalarial activity, SYBR Green MSF assay, Dd2. As to conditions: Plasmodium falciparum, DD2. Format: cell-based. An excerpt:
(§1) This example describes the screening of disclosed antimalarial acridones against the CQ-sensitive D6 strain and the MDR Dd2 strain of P. falciparum for in vitro antimalarial activity.
As shown in Table 3 and Table 4, selected soluble acridone derivatives were screened for antimalarial activity against the CQ-sensitive D6 and the MDR Dd2 strains of P. falciparum.

Data set [2] relates to MDR P. falciparum Dd2. The data set can be described thus: Fixed-ratio combination (isobologram) with quinoline antimalarials, Dd2. Format: cell-based. The procedure:
In one embodiment, synergism is assessed herein using fixed-ratio combinations that provide information over a wide range of drug concentrations. […] If these stock solutions were termed Drug A and Drug B, then six final stock solutions were prepared from this initial stock: Drug A alone, Drug B alone, and volume:volume mixtures of Drug A and B in the following ratios: 4:1, 3:2, 2:3, and 1:4. Two-fold dilutions of each of the six final stock solutions were done robotically across a 96-well plate in quadruplicate. Subsequent steps were typical of standard drug-susceptibility methods. […] The data pointed from all six curves were then analyzed using Calcusyn software (commercially available from BioSoft, Cambridge, UK) for determination of synergy. Output from this analysis included FIC values used to plot isobolograms as well as a rigorously determined synergy index, termed the combination index (CI) (Calcusyn). FIC50 isobolograms, CI's and tabulation of IC90 component drug concentrations were reported.
The combinations of the acridones T3.5 and T2 with quinine were assessed for synergism.
FIG. 6 is an isobologram charting the efficacy of quinine in combination with T3.5 in vitro against CQ-sensitive (D6) and MDR (Dd2) P. falciparum.

The subject of data set [3] is murine splenic lymphocytes (MSLCs). Nature of the data set: Cytotoxicity by Alamar Blue assay. As to conditions: for IC50: cytotoxicity. For orientation: The colour change of resazurin is a common sign of viable cells or microbes.
The nature of data set [4]: Heme-binding affinity (spectrophotometric titration). Conditions: Table 4. The source says: With continued reference to FIG. 1, panel B illustrates the spectrophotometric titration curve of the heme:3,6-bis-ε-(N,N-diethylamino)-amyloxy xanthone (C5) complex. The apparent binding constant was derived from the best fit (solid line) of a 1:1 (heme dimer:C5) association model. […] Panels A and B show the fluorescence localization of C5 and LysoTracker Red, respectively.

Data set [5] concerns QN-sensitive P. yoelii (K). Nature of the data set: In vivo synergism T3.5 and quinine, 6-day Thompson test in mice. As to conditions: alone or fixed-ratio combination (dose of each). The procedure:
In vivo synergism was assessed using the 6-day Thompson test in mice infected with QN-sensitive P. yoelii (K), comparing the efficacy of T3.5 alone, QN alone and T3.5:QN combinations (Table 7). Dosages were established using a rigorous fixed-ratio combination dosing protocol and results were assessed using Calcusyn software to determine synergy. As in the case of the in vitro combination, there was evident in vivo synergism.

In data set [6] the test system is CQ-sensitive D6 strain of P. falciparum. The data set can be described thus: In vitro antimalarial activity, SYBR Green MSF assay, D6. As to conditions: Plasmodium falciparum, D6. Format: cell-based.
Text: as §1

Data set [7] concerns P. yoelii. Nature of the data set: Hemozoin in PRBCs of treated infected mice. The data set is classed as in vivo. The procedure: P. falciparum Dd2 MDR parasited red cells were synchronized to the ring stage by sorbitol lysis and incubated the cells in the presence or absence of 300 nM T3.5. […] P. yoelii infected mice treated with T3.5 harbor PRBCs that lack hemozoin. Taken together these observations are consistent with the notion that T3.5 blocks hemozoin formation in infected cells.

Data set [8] can be described thus: In vitro heme aggregation assay. Conditions: 25 mM phosphate buffer, pH 4.8, 30 minutes at room temperature. The procedure:
This example describes the in vitro inhibition of heme aggregation by xanthone 2,3,4,5,6-pentahydroxyxanthone. Conditions: 25 mM Phosphate buffer, pH 5.2, 1 hour incubation at 37° C. Further details of this assay are described by Ignatushchenko et al. in Xanthones as antimalarial agents; studies of a possible mode of action.
This example describes visual evidence that acridones disclosed herein form soluble complexes with heme under mildly acidic conditions. […] Employing the same assay conditions, heme was mixed with T2 or T3.5 under mildly acidic conditions (25 mM phosphate buffer, pH 4.8) and monitored. […] Without being limited to theory, it is believed that for some compounds inhibition of heme aggregation in vitro can be correlated with inhibition of hemozoin formation in vivo.

Data set [9] concerns the target T1, recombinant human serotonin transporter (hSERT) (Homo sapiens, UniProt P31645).
T1 construct: expressed in transfected cells
Nature of the data set: [125I]RTI-55 binding, HEK-hSERT.

The target of data set [10] is T2, recombinant human dopamine transporter (hDAT) (Homo sapiens, UniProt Q01959).
T2 construct: expressed in transfected cells
T2 sequence (Q01959 whole entry): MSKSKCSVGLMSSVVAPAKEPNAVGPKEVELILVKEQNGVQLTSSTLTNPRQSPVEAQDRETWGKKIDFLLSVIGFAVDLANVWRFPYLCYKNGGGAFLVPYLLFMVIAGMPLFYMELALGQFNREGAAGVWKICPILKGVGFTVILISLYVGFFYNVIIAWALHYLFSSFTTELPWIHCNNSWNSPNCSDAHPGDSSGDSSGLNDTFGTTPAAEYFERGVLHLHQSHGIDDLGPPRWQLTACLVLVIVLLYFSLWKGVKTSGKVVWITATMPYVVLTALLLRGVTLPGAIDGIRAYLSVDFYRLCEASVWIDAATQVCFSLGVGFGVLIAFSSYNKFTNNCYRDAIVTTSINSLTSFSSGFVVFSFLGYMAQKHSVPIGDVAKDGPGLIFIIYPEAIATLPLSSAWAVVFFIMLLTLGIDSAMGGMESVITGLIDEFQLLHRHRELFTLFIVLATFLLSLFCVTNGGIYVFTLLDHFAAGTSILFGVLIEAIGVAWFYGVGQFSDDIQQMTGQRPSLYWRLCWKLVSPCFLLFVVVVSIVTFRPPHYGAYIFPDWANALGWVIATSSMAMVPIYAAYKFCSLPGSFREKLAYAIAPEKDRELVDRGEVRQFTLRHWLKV
The data set can be described thus: [125I]RTI-55 binding, HEK-hDAT.

Data set [11] has as its target T3, recombinant human norepinephrine transporter (hNET) (Homo sapiens, UniProt P23975).
T3 construct: expressed in transfected cells
Nature of the data set: [125I]RTI-55 binding, HEK-hNET.

The nature of data set [12]: Metabolic stability and fate in hepatic S9 fraction with NADPH. Format: in vitro ADME, murine. As to conditions: 50 μM, NADPH 1 mM, 10, 30 and 60 min. The procedure:
This example investigates the metabolic stability and fate of T3.5 in the presence of NADPH and a murine hepatic S9 fraction. Hepatic S-9 fractions were incubated with 50 μM T3.5 in the presence of NADPH (1 mM) for 10, 30 and 60 min. HPLC was conducted with a Hypersil Gold column that is stable at high pH. […] The full scan mass spectrum had the isotopic ratio expected for the chlorine substituted acridone ring. […] The two unresolved peaks most likely represent de-ethylation of the tertiary amine on each side chain.
A second de-ethylation also occurred with the prolonged incubation as evidenced by the peak at 17.5 min when monitored at m/z 388.1 (loss of m/z=56). Another dealkylated metabolite was monitored at m/z 345.1 and corresponds to the loss of the triethylamine side chain (loss of m/z=99) from the acridone ring. The dealkylation could occur from either the aryl ether side chain or from the acridone ring nitrogen. The later would result in the production of the active compound T2. […] In addition to the dealkylated products, a hydroxylated metabolite was also detected by monitoring at m/z 460.2 (addition of m/z=16). The hydroxylation could occur on the acridone ring or on one of the primary carbons on the ethylamine side chains. Further MS/MS experiments will help establish the site of hydroxylation.

T1 sequence (P31645 whole entry): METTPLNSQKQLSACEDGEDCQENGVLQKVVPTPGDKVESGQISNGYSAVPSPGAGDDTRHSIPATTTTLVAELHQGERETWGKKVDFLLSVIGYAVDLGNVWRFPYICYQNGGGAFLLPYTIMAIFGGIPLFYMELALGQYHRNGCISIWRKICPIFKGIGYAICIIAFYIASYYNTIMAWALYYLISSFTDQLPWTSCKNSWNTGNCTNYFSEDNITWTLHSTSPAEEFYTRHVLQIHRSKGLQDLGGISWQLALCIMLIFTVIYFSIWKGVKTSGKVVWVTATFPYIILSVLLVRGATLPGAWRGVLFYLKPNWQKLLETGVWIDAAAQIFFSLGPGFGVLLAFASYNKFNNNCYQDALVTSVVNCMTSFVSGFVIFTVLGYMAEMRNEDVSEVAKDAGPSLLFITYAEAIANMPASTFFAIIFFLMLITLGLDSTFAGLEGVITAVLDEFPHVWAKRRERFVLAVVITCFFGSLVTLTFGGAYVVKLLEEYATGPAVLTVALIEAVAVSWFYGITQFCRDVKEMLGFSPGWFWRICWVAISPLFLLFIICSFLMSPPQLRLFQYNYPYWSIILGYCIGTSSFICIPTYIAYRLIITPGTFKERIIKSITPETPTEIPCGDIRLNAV
T3 sequence (P23975 whole entry): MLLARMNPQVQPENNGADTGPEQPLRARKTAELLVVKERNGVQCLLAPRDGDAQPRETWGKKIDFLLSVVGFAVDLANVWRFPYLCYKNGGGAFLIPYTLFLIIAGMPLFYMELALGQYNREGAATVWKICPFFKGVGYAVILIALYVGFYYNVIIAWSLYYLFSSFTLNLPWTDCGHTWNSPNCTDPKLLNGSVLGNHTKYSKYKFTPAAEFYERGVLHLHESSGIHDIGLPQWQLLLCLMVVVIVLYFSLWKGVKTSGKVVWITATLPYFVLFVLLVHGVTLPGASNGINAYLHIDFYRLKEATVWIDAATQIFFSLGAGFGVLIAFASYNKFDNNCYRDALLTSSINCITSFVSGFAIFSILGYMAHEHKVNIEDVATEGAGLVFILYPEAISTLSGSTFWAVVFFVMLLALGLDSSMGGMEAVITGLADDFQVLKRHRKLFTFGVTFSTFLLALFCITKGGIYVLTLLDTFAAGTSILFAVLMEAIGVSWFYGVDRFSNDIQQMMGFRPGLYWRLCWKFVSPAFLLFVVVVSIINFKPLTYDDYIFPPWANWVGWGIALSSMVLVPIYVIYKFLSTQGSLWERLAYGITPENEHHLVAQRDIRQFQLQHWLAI

For `CCN(CC)CCOc1ccc2c(=O)c3ccc(Cl)cc3n(CCN(CC)CC)c2c1` [T3.5, 3-(2-diethylaminoethoxy)-6-chloro-10-(2-diethylaminoethyl)-9-acridone], the 50% inhibitory concentration (IC50) in [1] (Table 2, average of 4 independent experiments, read-out: IC50, Dd2) is 0.058 µM; in [1] (Table 4, read-out: IC50 P. falciparum Dd2) it was 0.077 µM; in data set [3] (read-out: IC50, MSLCs, Table 2), more than 25 µM; in data set [3] (read-out: IC50 MSLCs, Table 4), more than 25 µM; in data set [6] (Table 2, average of 4 independent experiments, read-out: IC50, D6), 0.05 µM; in [6] (Table 4, read-out: IC50 P. falciparum D6), 0.044 µM. The “interaction with CQ” value in [2] (isobolar analysis) was “synergistic”. For the same compound, in data set [2] (isobolar analysis), the interaction with amodiaquine result is “synergistic”. Besides, the interaction with mefloquine entry in data set [2] (isobolar analysis) is on record as “not”. Besides, the interaction with quinine entry in data set [2] (isobolar analysis) is listed as “synergism; also recorded: synergistic”. For the same compound, the “T3.5 concentration giving 90% growth inhibition in combination” value in data set [2] (with 7-70 nM quinine) was 20 to 200 nM. The “cytotoxicity at the highest tested concentration” value in data set [3] (25 μM) is listed as “no evidence of cytotoxicity”. Further, the IVTI in data set [3] (ratio of cytotoxicity IC50 (vs. MSLCs) to antimalarial IC50 against D6) is more than 500. In addition, in [4], the “Heme-binding Ka” value was 7.1 10^4 M^−1. Further, the ED50 dose in [5] is recorded as 56 mg/kg/day. Further, in data set [5], the ED75 dose was found to be 70 mg/kg/day. For the same compound, the ED90 dose in data set [5] came out at 88 mg/kg/day. Besides, the “hemozoin in PRBCs” value in [7] is on record as “lack hemozoin”. The “formation of heme aggregates” value in data set [8] is reported as “prevent the formation of heme aggregates”. For the same compound, the inhibition constant Ki in data set [9] is 2.29 µM; in data set [10], more than 10 µM; in data set [11], more than 10 µM. For the same compound, in data set [12], the most abundant metabolites result was “de-ethylated products”.
